Where only a bound is given, the exact number is not on record here.

This experiment concerns the target T1, Aurora-2 (Homo sapiens, UniProt O14965).
T1 construct: autophosphorylation of Aurora-2 (residues 125-391)
T1 sequence (O14965 125-391): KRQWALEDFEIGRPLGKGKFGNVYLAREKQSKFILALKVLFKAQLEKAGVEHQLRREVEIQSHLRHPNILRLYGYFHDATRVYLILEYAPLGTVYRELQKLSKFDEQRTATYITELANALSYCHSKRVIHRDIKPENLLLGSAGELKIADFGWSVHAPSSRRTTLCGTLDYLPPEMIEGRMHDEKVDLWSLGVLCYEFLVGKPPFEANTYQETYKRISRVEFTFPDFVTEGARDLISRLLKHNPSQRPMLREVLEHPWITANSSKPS
As to the kind of experiment: Aurora-2 Enzymatic Assay (ELISA-based). Type of experiment: biochemical. As to conditions: phosphorylated Aurora-2 (residues 125-391), Histone H3 Ser-10 phosphorylation, averages of three independent measurements; read-out: Aurora-2 IC50 Enzyme. The procedure: In vitro assays were run to measure potency of Aurora-2 kinase inhibition by selected compounds of Formula I.
Aurora-2 Enzymatic Assay. An ELISA-based enzymatic assay was used to determine the compound potency for Aurora-2. In this assay, phosphorylated Aurora-2 (Pi-Aurora-2) catalyzes the ATP-dependent phosphorylation of Ser-10 of Histone H3. Pi-Aurora-2 was produced by autophosphorylation of Aurora-2 (residues 125-391) by 1 mM ATP in the presence of 10 mM MgCl2. The assay buffer used was 100 mM HEPES, pH 7.5, 1 mM DTT, 0.01% (v/v) Tween-20. Compounds were diluted in assay buffer containing 4% DMSO just prior to the assay. • Procedure. High-binding 96-well ELISA plates (Costar 9018) were coated overnight at 4° C. with 10 μg/ml human Histone H3 (Upstate) in PBS (100 μl/well). The following day, the plates were emptied and blocked with 1% BSA in PBS (150 μl/well) for 1 h at 37° C. At the end of the incubation, plates were washed 3 times with 0.01% Tween-20 in PBS (300 μl/well). 50 μl of compound were dispensed to each well followed by addition of 20 μl 10 mM MgCl2 and 20 μl 50 μM ATP (Sigma). The reaction was initiated by addition of 10 μl 30 nM Pi-Aurora-2. […] The reaction was quenched with 9 μl 50 mM EDTA and the plates were washed 5 times with 0.01% Tween-20 in PBS (300 μl/well). The phospho-histone H3 (Ser10) 6G3 monoclonal antibody (Cell Signaling) was then diluted 2,000-fold with 1% BSA in PBS, and was added to the plates (100 μl/well). Following 1 h incubation at 37° C., the plates were washed as described above. The HRP-conjugated secondary antibody (goat anti-mouse Ig(H+ L)-HRP human absorbed, Southern Biotechnology Associates, Inc.) was diluted 20,000-fold with 1% BSA in PBS and was added to the plates (100 μl/well). The plates were incubated for 1 h at 37° C. and then washed 5 times with 0.01% Tween-20 in PBS (300 μl/well). 100 μl/well TMB, SureBlue Reserve (KPL) were added. After ca. 5-6 min, each well received 100 μl 1 M HCl and the OD450 was measured with a SpectraMax Plus microplate reader (Molecular Devices). Under these conditions, absorbance values for positive and negative controls were ca. 0.1 and 1.7, respectively, and were used to define the 100% and 0% inhibition of the Aurora-2 reaction. The IC50 values reported (Table 1) are the averages of three independent measurements.
In general terms: In an ELISA, binding on a coated surface is turned into a signal by an enzyme label.
In the case of `COc1cc(-c2cnc3[nH]c(=O)n(Cc4cccc(C)c4)c3n2)cc(OC)c1OC` [Compound 30, 1-(3-Methylbenzyl)-6-(3,4,5-trimethoxyphenyl)-1,3-dihydro-imidazo[4,5-b]pyrazin-2-one], the half-inhibitory concentration (IC50) – broadly, the concentration that gives 50% inhibition – is 500 to 1000 nM. In the case of `COc1cc(-c2cnc3[nH]c(=O)n(Cc4cccc(F)c4)c3n2)cc(OC)c1OC` [Compound 31, 1-(3-Fluorobenzyl)-6-(3,4,5-trimethoxyphenyl)-10,3-dihydro-imidazo[4,5-b]pyrazin-2-one] it was less than 500 nM. `COc1cccc(Cn2c(=O)[nH]c3ncc(-c4cc(OC)c(OC)c(OC)c4)nc32)c1` [Compound 32, 1-(3-Methoxybenzyl)-6-(3,4,5-trimethoxyphenyl)-1,3-dihydro-imidazo[4,5-b]pyrazin-2-one]: the half-inhibitory concentration (IC50) fell in the range of 500 to 1000 nM. `COc1cc(-c2cnc3[nH]c(=O)n(Cc4cccc5ccccc45)c3n2)cc(OC)c1OC` [Compound 33, 1-Naphthalen-1-ylmethyl-6-(3,4,5-trimethoxyphenyl)-1,3-dihydro-imidazo[4,5-b]pyrazin-2-one]: the 50% inhibitory concentration (IC50) was greater than 1000 nM. Turning to `COc1cc(-c2cnc3[nH]c(=O)n(Cc4ccc5c(c4)OCO5)c3n2)cc(OC)c1OC` [Compound 34, 1-Benzo[1,3]dioxol-5-ylmethyl-6-(3,4,5-trimethoxyphenyl)-1,3-dihydroimidazo[4,5-b]pyrazin-2-one], the IC50 was 500 to 1000 nM. Regarding `COc1cc(-c2cnc3[nH]c(=O)n(C4CCc5ccccc54)c3n2)cc(OC)c1OC` (stereo not shown) [Compound 35, 1-Indan-1-yl-6-(3,4,5-trimethoxyphenyl)-1,3-dihydroimidazo[4,5-b]pyrazin-2-one], the half-inhibitory concentration (IC50) is less than 500 nM.

In the case of `COc1cc(-c2cnc3[nH]c(=O)n(Cc4cccs4)c3n2)cc(OC)c1OC` [Compound 36, 1-Thiophen-2-ylmethyl-6-(3,4,5-trimethoxyphenyl)-1,3-dihydro-imidazo[4,5-b]pyrazin-2-one], the concentration for half-maximal inhibition (IC50) was less than 500 nM.

Take `COc1cc(-c2cnc3[nH]c(=O)n(Cc4ccccc4Cl)c3n2)cc(OC)c1OC` [Compound 37, 1-(2-Chlorobenzyl)-6-(3,4,5-trimethoxyphenyl)-1,3-dihydro-imidazo[4,5-b]pyrazin-2-one]: the IC50 was less than 500 nM. With `COc1cc(-c2cnc3[nH]c(=O)n(Cc4ccc(N)cc4)c3n2)cc(OC)c1OC` [Compound 38, 1-(4-Aminobenzyl)-6-(3,4,5-trimethoxyphenyl)-1,3-dihydroimidazo[4,5-b]pyrazin-2-one], the IC50 was less than 500 nM. As for `COc1cc(-c2cnc3[nH]c(=O)n(Cc4cccc(N)c4)c3n2)cc(OC)c1OC` [Compound 39, 1-(3-Aminobenzyl)-6-(3,4,5-trimethoxyphenyl)-1,3-dihydro-imidazo[4,5-b]pyrazin-2-one], the IC50 was 500 to 1000 nM.

Values taken from patent US7608622B2, “Imidazo[4,5-b]pyrazinone inhibitors of protein kinases” (Janssen Pharmaceutica NV, priority 2004, dated 2009).
